# Reference: patent publication US20240336658A1, “CYCLIC PEPTIDE AND PREPARATION METHOD AND USE THEREOF” (HANGZHOU HUIBO SCIENCE AND TECHNOLOGY CO., LTD, priority 2021, published 2024)
# “Also recorded” adds a separate entry of the source. Read-outs that look alike come from different tables or passages of the source.
# Experiments:
# [1] = system: full-thickness skin defect wound surfaces; assay: Effect of Hst1-MAD cyclic peptide on wound repair in mice (Example 22): healing rate, histology, immunohistochemistry, immunofluorescence double staining, Western Blot; type: in vivo, C57 BL/6 mice
# Description: […]. 36 healthy male special pathogen-free grade C57 BL/6 mice (purchased from Guangdong Experimental Animal Center) of 6-8 weeks old and weighing 22-28 g. They were intraperitoneally injected with 5 ml/kg of 1% pentobarbital sodium for anesthesia. After the mice had no corneal reflex, the hair on their backs was carefully removed and disinfected with alcohol. […] full-thickness skin defect wound surfaces were prepared on the back of each mouse by using a circular skin punch. […]. Each wound surface was added with 0.5 ml of four drugs respectively, and administration was conducted every day until the wound surfaces of the experimental groups healed. Photographs were taken on days 0, 3, 5, and 10 after surgery, and wound tissues were sampled on days 3, 5, and 10 for subsequent pathological staining.
# was observed and photographed with a digital camera (see FIG. 19), and the wound healing rate was calculated (see FIG. 20). Wound healing rate=(wound area immediately after injury−unhealed wound area at each time point)÷wound area immediately after injury×100%.
# The wound specimens were fixed in 4% paraformaldehyde for 48 hours, rinsed with tap water for 10 minutes, dehydrated with graded ethanol, permeabilized with xylene, and embedded in paraffin to prepare 4 μm thick sections. Some sections were taken and subjected to HE staining to detect an epidermal thickness and subjected to Masson staining to detect newly grown collagen. Through hematoxylin-cosin staining (HE), the effects of the four groups of drugs on newly grown epidermal at the wound surface on day 10 were evaluated (FIGS. 21 and 22). Through Masson staining, the effects of the four groups of drugs on newly grown collagen at the wound surface on days 5 and 10 were evaluated (FIGS. 23 and 24). 5 sections were taken from each mouse, and 5 fields of view were selected for each section. Data analysis was performed using the software Image-pro Plus.
# and rehydrated, subjected to antigen thermal repair with a 0.1 mol/L citric acid buffer (with a pH value of 6.0) for 20 minutes, treated with hydrogen peroxide with a volume fraction of 10% for inactivation of endogenous peroxidase for 10 minutes, and blocked with 50 g/L of bovine serum albumin for 2 hours. It was added with a rabbit anti-mouse CD31 primary antibody (with a dilution ratio of 1:300) and a mouse anti-VEGF (with a dilution ratio of 1:100), incubated overnight at 4° C., and washed with PBS. It was rewarmed for 1 hour, washed with PBS, added dropwise with ready-to-use biotinylated goat anti-mouse and goat anti-rabbit IgG secondary antibodies, incubated for 2 hours, and washed with PBS. It was subjected to DAB development, hematoxylin counterstaining. gradient ethanol dehydration, xylene permeabilization, and resin blocking. 5 sections were taken from each mouse, and 5 fields of view were selected for each section. The sections were observed under a 400× inverted fluorescence microscope, and analyzed for the number of CD31-positive blood vessels (see FIG. 25) and VEGF expression amounts (see FIG. 26) by using Image-pro Plus software.
# The specific steps were: the previous steps were the same as those of 1.3.3, and they were incubated with the antibodies MHCII (orb101661; 1:500; Biorbyt Biotechnology Co., Ltd., Wuhan, CN), CD11c (97585; 1:200; Cell Signaling Technology Inc., Boston, MA), CD68 (GB11067; 1:300; Servicebio Inc.), CD80 (GB11034; 1:300; Servicebio Inc.), CD206 (GB11062; 1:500; Servicebio Inc.), claudin1 (37-4900; 1:100; Thermo Fisher Scientific Co., Ltd, Shanghai, CN) and claudin2 (32-5600; 1:200; Thermo Fisher Scientific Co., Ltd.) at 4° C. overnight. The fluorescent-labeled secondary antibodies were incubated at room temperature for 1 h, followed by 4′,6-diamidino-2′-phenylindole (DAPI) (G1012; Google Biotechnology Co., Ltd., Wuhan, CN). The stained sections were photographed by using a fluorescence microscope (Nikon Eclipse TI-SR. Tokyo, Japan). […]
# fibroblasts (NIH/3T3) = assay: Scratch experiment, Hst1-MAD cyclic peptides (Example 23); type: cell-based; settings: dose required to achieve the same pharmaceutical effect in the scratch experiment
# Text: In this example, the propargylglycine-Hst1-MAD cyclic peptide, the homopropargylglycine-Hst1-MAD cyclic peptide, the dihomopropargylglycine-Hst1-MAD cyclic peptide and the linear Hst1 prepared in Examples 13, 14, and 15, and the Hst1-MAD head-to-tail cyclic peptide or N-terminal and C-terminal cyclized peptide prepared by the amide bond cyclization method provided by the literature of for example Sortase A as a tool for high-yield histatin cyclization, Jan G. M. Bolscher, The FASEB Journal. Research Communication, were adopted respectively, the reaction time was recorded, the yield of the reaction product was detected by HPLC, the proportion of side reactions in the reaction product was calculated, and activity comparison was performed. The activity comparison method was to calculate the dose required to achieve the same pharmaceutical effect through a scratch experiment. […] After 12 hours and 24 hours of culture, the scratched area of each group was calculated by using imageJ (Rawak Software, Inc. Germany) software, and the scratch area at 0 hour was an initial scratch area. The scratch healing rate was calculated in the following manner: W % (scratch healing rate)=(W0−Wt)/W0×100%, where W0=an initial scratch area, and Wt=a remaining scratch area; and the results were as shown in Table 14.
substance,measurement,setting,value
"Linear Hst1-MAD: shortest sequence that maintains Hst1 activity, 20th to 32nd amino acids of Hst1, SEQ ID NO.13 (SHREFPFYGDYGS)",inhibitory effects on inflammatory factors IL-6 and MIP-1β,"[1]; Western Blot, 1 μM Click-Hst1-MAD, 1 μM Hst1-MAD",significantly better than those of the control group and the 10 μM Histatin1 group
same,expression levels of Nrf2 and HO-1,"[1]; day 3 after surgery, Western Blot, 1 μM Click-Hst1-MAD, 1 μM Hst1-MAD",increased compared with those in the Control group
same,VEGF expression amount,"[1]; day 5, 1 μM Click-Hst1-MAD, 10 μM Histatin1, 1 μM Hst1-MAD compared with each other",comparable
same,expression levels of the dermal collagen,"[1]; day 5, 1 μM Hst1-MAD and 10 μM Histatin1 compared with each other",equivalent
same,epidermal thickness at the wound surface,"[1]; day 10, HE staining, 1 μM Click-Hst1-MAD, 1 μM Hst1-MAD, 10 μM Histatin1",thinnest epidermal thickness
same,Claudin1 expression intensity,"[1]; day 10, immunofluorescence, 1 μM Click-Hst1-MAD, 1 μM Hst1-MAD, 10 μM Histatin1",equivalent expression level of Claudin1
same,healing rate of the wound surface,"[1]; days 3 and 5, 1 μM Click-Hst1-MAD, 1 μM Hst1-MAD linear peptide, 10 μM Histatin1",equivalent to that of the 10 μM Histatin linear peptide group
same,number of dendritic cells (MHCII+ and CD11c+),"[1]; days 3 and 5 evaluated, 1 μM Click-Hst1-MAD, 1 μM Hst1-MAD, 10 μM Histatin1",slightly lower than that of the 10 μM Histatin1 group; also recorded: significantly higher than that in the Control group
same,number of M1 macrophages (CD68+ and CD80+),"[1]; days 3 and 5 evaluated, 1 μM Hst1-MAD, 10 μM Histatin1",slightly higher than that in the 10 μM Histatin1 group; also recorded: lower than that in the Control group
same,number of CD31-positive blood vessels,"[1]; days 5 and 10, immunohistochemistry, 1 μM Click-Hst1-MAD, 1 μM Hst1-MAD, 10 μM Histatin1",significantly higher than that in the Control group
same,Dosage of agents required for scratch test,fibroblasts (NIH/3T3),8 µM
Cyclized Hst1 prepared by Sortase A enzymatic method,"ring closure, conversion","enzyme bond, Sortase A",90%
Hst1 cyclized through amide bonds,"ring closure, conversion",amide bond,3%
